Reference: patent publication US20250179078A1, “INHIBITORS OF NLRP3” (PTC THERAPEUTICS, INC., priority 2022, published 2025)

Biological target: T1, NLRP3 (Homo sapiens, UniProt Q96P20)
T1 construct: host or cells: THP-1 cells differentiated with PMA
Assay: IL-1β Secretion Assay (NLRP3-dependent IL1β secretion in THP1 cells)
Type: cell-based
Conditions: PMA-differentiated THP-1 cells; compounds incubated 20 h; 2.5 μM Nigericin 3 h; HTRF IL-1β readout; read-out: IC50 IL-1β Inhibition
Method: Monocytic THP-1 cells (ATCC: TIB-202) were maintained in growth media consisting of RPMI 1640 medium (ThermoFisher, Cat #11875-085), 10% FBS (ThermoFisher) and 0.05 mM β-mercaptoethanol (ThermoFisher, Cat #21985-023), according to the provider's instructions. The cell concentration was adjusted to 7.5×10^5 cells/mL, and plated in complete growth media with a final concentration of 100 ng/mL phorbol 12-myristate 13-acetate (PMA, Sigma #P8139). Cells were seeded at 100 µL/well into a 96-well cell culture plate (ThermoFisher Cat #165305) and allowed to differentiate for 24 h in a cell culture incubator at 37° C. with 5% CO2. Cells were washed 1× with 100 ul PBS and replaced with fresh RPMI+5% FBS. Compounds were serial diluted in DMSO with 3 fold dilution for a total of 7 concentrations. Diluted compounds were added to the cells at a ratio of 1:200 and incubated for 20 h. The NLRP3 inflammasome was activated with the addition of 2.5 μM Nigericin (Sigma: Cat #SML1779-1 ml), for 3 h. After incubation, 15 μL of conditioned media was removed and assayed for levels of IL-1β using the HTRF IL-1β assay kit (Cisbio: Cat #62HIL1BPEH) as per the manufacturer's instructions.
Compounds, once produced and prepared according to the present invention, can be assessed in variety of assays to characterize their activities. For example, NLRP3-dependent IL1β secretion was evaluated in THP1 cells. IC50 values of IL1β inhibition were calculated from the plot of percentage of inhibition versus the inhibitor concentration by a logistics fit. TABLE I depict examples of compounds according to generic Formula I. Data which is <1 nM is listed as *****; data 1-10 nM is listed as ****; data 10-100 nM is listed as ***, data 100-300 nM is listed as **, data ≥300 nM is listed as *.

T1 sequence (Q96P20 whole entry): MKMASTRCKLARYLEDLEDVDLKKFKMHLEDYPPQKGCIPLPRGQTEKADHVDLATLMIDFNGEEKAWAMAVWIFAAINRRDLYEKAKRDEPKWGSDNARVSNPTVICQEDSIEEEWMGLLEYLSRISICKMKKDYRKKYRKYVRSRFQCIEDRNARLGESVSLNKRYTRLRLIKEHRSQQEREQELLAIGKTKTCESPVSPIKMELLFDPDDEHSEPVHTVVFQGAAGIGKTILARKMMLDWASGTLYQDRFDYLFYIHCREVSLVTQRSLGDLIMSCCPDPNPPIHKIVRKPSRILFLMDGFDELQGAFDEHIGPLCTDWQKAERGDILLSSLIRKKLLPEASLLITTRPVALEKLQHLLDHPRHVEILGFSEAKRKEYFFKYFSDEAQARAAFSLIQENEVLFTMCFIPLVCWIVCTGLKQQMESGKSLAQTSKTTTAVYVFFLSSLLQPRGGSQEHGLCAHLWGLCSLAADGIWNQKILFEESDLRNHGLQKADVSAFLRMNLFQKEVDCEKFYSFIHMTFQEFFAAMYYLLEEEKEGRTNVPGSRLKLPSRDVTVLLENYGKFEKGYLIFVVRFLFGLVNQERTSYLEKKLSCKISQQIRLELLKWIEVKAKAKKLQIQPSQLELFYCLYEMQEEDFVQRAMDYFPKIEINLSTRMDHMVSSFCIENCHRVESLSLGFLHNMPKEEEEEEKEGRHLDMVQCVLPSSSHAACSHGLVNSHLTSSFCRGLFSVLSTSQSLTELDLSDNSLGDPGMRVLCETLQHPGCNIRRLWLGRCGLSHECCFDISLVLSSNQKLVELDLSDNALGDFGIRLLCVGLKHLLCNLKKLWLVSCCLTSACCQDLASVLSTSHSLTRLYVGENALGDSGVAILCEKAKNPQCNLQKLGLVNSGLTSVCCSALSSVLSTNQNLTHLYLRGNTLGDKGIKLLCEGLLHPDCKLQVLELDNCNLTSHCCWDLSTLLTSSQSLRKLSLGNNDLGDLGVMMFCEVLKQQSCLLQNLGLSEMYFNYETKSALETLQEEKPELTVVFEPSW

Structure (SMILES) | IC50
COc1ccc(-c2nnc(N[C@@H]3CCCN(CCO)C3)n3ccc(F)c23)c(C(F)(F)F)c1 [Compound 18, 2-[(3R)-3-({8-fluoro-1-[4-methoxy-2-(trifluoromethyl)phenyl]pyrrolo[1,2-d][1,2,4]triazin-4-yl}amino)piperidin-1-yl]ethan-1-ol] | 1 to 10 nM
CN1CCC[C@@H](Nc2nnc(-c3ccc(C(F)(F)F)cc3F)c3cccn23)C1 [Compound 19, 1-[2-fluoro-4-(trifluoromethyl)phenyl]-N-[(3R)-1-methylpiperidin-3-yl]pyrrolo[1,2-d][1,2,4]triazin-4-amine] | 10 to 100 nM
CCN1CCC[C@@H](Nc2nnc(-c3ccc(C(F)(F)F)cc3F)c3cccn23)C1 [Compound 20, N-[(3R)-1-ethylpiperidin-3-yl]-1-[2-fluoro-4-(trifluoromethyl)phenyl]pyrrolo[1,2-d][1,2,4]triazin-4-amine] | 1 to 10 nM
OCCN1CCC[C@@H](Nc2nnc(-c3ccc(C(F)(F)F)cc3F)c3cccn23)C1 [Compound 21, 2-[(3R)-3-({1-[2-fluoro-4-(trifluoromethyl)phenyl]pyrrolo[1,2-d][1,2,4]triazin-4-yl}amino)piperidin-1-yl]ethan-1-ol] | 10 to 100 nM
CC(CO)N1CCC[C@@H](Nc2nnc(-c3ccc(C(F)(F)F)cc3OC(F)F)c3cccn23)C1 (stereo partly drawn) [Compound 22, 2-[(3R)-3-({1-[2-(difluoromethoxy)-4-(trifluoromethyl)phenyl]pyrrolo[1,2-d][1,2,4]triazin-4-yl}amino)piperidin-1-yl]propan-1-ol] | < 1 nM
Cc1ccc(-c2nnc(N[C@@H]3CCCN(C)C3)n3cc(C)cc23)c(C(F)F)c1 [Compound 23, 1-[2-(difluoromethyl)-4-methylphenyl]-7-methyl-N-[(3R)-1-methylpiperidin-3-yl]pyrrolo[1,2-d][1,2,4]triazin-4-amine] | 1 to 10 nM
Cc1cc2c(-c3ccc(C4CC4)cc3OC(F)F)nnc(N[C@@H]3CCCN(C)C3)n2c1 [Compound 24, 1-[4-cyclopropyl-2-(difluoromethoxy)phenyl]-7-methyl-N-[(3R)-1-methylpiperidin-3-yl]pyrrolo[1,2-d][1,2,4]triazin-4-amine] | < 1 nM
Cc1ccc(-c2nnc(N[C@@H]3CCCN(C)C3)n3cc(C)cc23)c(OC(F)F)c1 [Compound 25, 1-[2-(difluoromethoxy)-4-methylphenyl]-7-methyl-N-[(3R)-1-methylpiperidin-3-yl]pyrrolo[1,2-d][1,2,4]triazin-4-amine] | 1 to 10 nM
COc1ccc(-c2nnc(N[C@@H]3CCCN(C)C3)n3cccc23)c(C)c1 [Compound 26, 1-(4-methoxy-2-methylphenyl)-N-[(3R)-1-methylpiperidin-3-yl]pyrrolo[1,2-d][1,2,4]triazin-4-amine] | 10 to 100 nM
COc1ccc(-c2nnc(N[C@@H]3CCCN(C)C3)n3cccc23)c(C2CC2)c1 [Compound 27, 1-(2-cyclopropyl-4-methoxyphenyl)-N-[(3R)-1-methylpiperidin-3-yl]pyrrolo[1,2-d][1,2,4]triazin-4-amine] | 1 to 10 nM
CN1CCC[C@@H](Nc2nnc(-c3ccc(C(F)(F)F)cc3C(F)(F)F)c3c(F)ccn23)C1 [Compound 28, 1-[2,4-bis(trifluoromethyl)phenyl]-8-fluoro-N-[(3R)-1-methylpiperidin-3-yl]pyrrolo[1,2-d][1,2,4]triazin-4-amine] | 1 to 10 nM
CCN1CCC[C@@H](Nc2nnc(-c3ccc(C(F)(F)F)cc3C(F)(F)F)c3c(F)ccn23)C1 [Compound 29, 1-[2,4-bis(trifluoromethyl)phenyl]-N-[(3R)-1-ethylpiperidin-3-yl]-8-fluoropyrrolo[1,2-d][1,2,4]triazin-4-amine] | 1 to 10 nM
OCCN1CCC[C@@H](Nc2nnc(-c3ccc(C(F)(F)F)cc3C(F)(F)F)c3c(F)ccn23)C1 [Compound 30, 2-[(3R)-3-({1-[2,4-bis(trifluoromethyl)phenyl]-8-fluoropyrrolo[1,2-d][1,2,4]triazin-4-yl}amino)piperidin-1-yl]ethan-1-ol] | 1 to 10 nM
CN1C[C@H](F)C[C@@H](Nc2nnc(-c3ccc(C(F)(F)F)cc3C(F)(F)F)c3c(F)ccn23)C1 [Compound 31, 1-[2,4-bis(trifluoromethyl)phenyl]-8-fluoro-N-[(3R,5R)-5-fluoro-1-methylpiperidin-3-yl]pyrrolo[1,2-d][1,2,4]triazin-4-amine] | 1 to 10 nM
CCN1C[C@H](F)C[C@@H](Nc2nnc(-c3ccc(C(F)(F)F)cc3C(F)(F)F)c3c(F)ccn23)C1 [Compound 32, 1-[2,4-bis(trifluoromethyl)phenyl]-N-[(3R,5R)-1-ethyl-5-fluoropiperidin-3-yl]-8-fluoropyrrolo[1,2-d][1,2,4]triazin-4-amine] | 1 to 10 nM
Cc1ccc(-c2nnc(N[C@@H]3CCCN(C)C3)n3cccc23)c(OC(F)F)c1 [Compound 33, 1-[2-(difluoromethoxy)-4-methylphenyl]-N-[(3R)-1-methylpiperidin-3-yl]pyrrolo[1,2-d][1,2,4]triazin-4-amine] | 1 to 10 nM
CCN1CCC[C@@H](Nc2nnc(-c3ccc(C)cc3OC(F)F)c3cccn23)C1 [Compound 34, 1-[2-(difluoromethoxy)-4-methylphenyl]-N-[(3R)-1-ethylpiperidin-3-yl]pyrrolo[1,2-d][1,2,4]triazin-4-amine] | 1 to 10 nM
FC(F)Oc1cc(C(F)(F)F)ccc1-c1nnc(N[C@@H]2CCCNC2)n2cccc12 [Compound 35, 1-[2-(difluoromethoxy)-4-(trifluoromethyl)phenyl]-N-[(3R)-piperidin-3-yl]pyrrolo[1,2-d][1,2,4]triazin-4-amine] | 10 to 100 nM
Cc1ccc(-c2nnc(N[C@@H]3CCCN(C)C3)n3cccc23)c(OC(F)(F)F)c1 [Compound 36, N-[(3R)-1-methylpiperidin-3-yl]-1-[4-methyl-2-(trifluoromethoxy)phenyl]pyrrolo[1,2-d][1,2,4]triazin-4-amine] | 1 to 10 nM
CN1CCC[C@@H](Nc2nnc(-c3ccc(C4CC4)cc3OC(F)(F)F)c3cccn23)C1 [Compound 37, 1-[4-cyclopropyl-2-(trifluoromethoxy)phenyl]-N-[(3R)-1-methylpiperidin-3-yl]pyrrolo[1,2-d][1,2,4]triazin-4-amine] | < 1 nM
C[C@]1(O)C[C@@H](Nc2nnc(-c3ccc(C(F)(F)F)cc3C(F)(F)F)c3c(F)ccn23)C1 [Compound 38, (1s,3s)-3-({1-[2,4-bis(trifluoromethyl)phenyl]-8-fluoropyrrolo[1,2-d][1,2,4]triazin-4-yl}amino)-1-methylcyclobutan-1-ol] | 10 to 100 nM
COc1ccc(-c2nnc(N[C@@H]3CCCN(C)C3)n3ccc(F)c23)c(OC(F)(F)F)c1 [Compound 39, 8-fluoro-1-[4-methoxy-2-(trifluoromethoxy)phenyl]-N-[(3R)-1-methylpiperidin-3-yl]pyrrolo[1,2-d][1,2,4]triazin-4-amine] | 1 to 10 nM
CN1CCC[C@@H](Nc2nnc(-c3ccc(C(F)(F)F)cc3CC(F)(F)F)c3cccn23)C1 [Compound 40, N-[(3R)-1-methylpiperidin-3-yl]-1-[2-(2,2,2-trifluoroethyl)-4-(trifluoromethyl)phenyl]pyrrolo[1,2-d][1,2,4]triazin-4-amine] | < 1 nM
C[C@]1(O)C[C@@H](Nc2nnc(-c3ccc(C(F)(F)F)cc3CC(F)(F)F)c3cccn23)C1 [Compound 41, (1s,3s)-1-methyl-3-({1-[2-(2,2,2-trifluoroethyl)-4-(trifluoromethyl)phenyl]pyrrolo[1,2-d][1,2,4]triazin-4-yl}amino)cyclobutan-1-ol] | 1 to 10 nM
CCc1ccc(-c2nnc(N[C@@H]3CCCN(C)C3)n3cccc23)c(OC(F)(F)F)c1 [Compound 42, 1-[4-ethyl-2-(trifluoromethoxy)phenyl]-N-[(3R)-1-methylpiperidin-3-yl]pyrrolo[1,2-d][1,2,4]triazin-4-amine] | 1 to 10 nM
CCOc1ccc(-c2nnc(N[C@@H]3CCCN(C)C3)n3cccc23)c(OC(F)(F)F)c1 [Compound 43, 1-[4-ethoxy-2-(trifluoromethoxy)phenyl]-N-[(3R)-1-methylpiperidin-3-yl]pyrrolo[1,2-d][1,2,4]triazin-4-amine] | 10 to 100 nM
CN1CCC[C@@H](Nc2nnc(-c3ccc(OC(F)F)cc3OC(F)(F)F)c3cccn23)C1 [Compound 44, 1-[4-(difluoromethoxy)-2-(trifluoromethoxy)phenyl]-N-[(3R)-1-methylpiperidin-3-yl]pyrrolo[1,2-d][1,2,4]triazin-4-amine] | < 1 nM
Cc1ccc(-c2nnc(N[C@@H]3CCCN(CCO)C3)n3cccc23)c(OC(F)F)c1 [Compound 45, 2-[(3R)-3-({1-[2-(difluoromethoxy)-4-methylphenyl]pyrrolo[1,2-d][1,2,4]triazin-4-yl}amino)piperidin-1-yl]ethan-1-ol] | 10 to 100 nM
